Laboratory results published in ChEMBL document CHEMBL4138232, “O2-(2,4-dinitrophenyl)diazeniumdiolates derivatives: Design, synthesis, cytotoxic evaluation and reversing MDR in MCF-7/ADR cells” (Eur J Med Chem, 2018).

Experiments:
HCT-116 [1] = experiment: Cytotoxicity against human HCT116 cells overexpressing GST-Pi assessed as inhibition of cell viability at 10 uM after 48 hrs by MTT assay relative to control; assay type: functional; conditions: HCT-116, 48 h
MDA-MB-231 = experiment: Antiproliferative activity against human MDA-MB-231 cells after 48 hrs by MTT assay relative to control; assay type: functional, cell-based; conditions: MDA-MB-231, 48 h
HCT-116 [2] = experiment: Antiproliferative activity against human HCT116 cells after 48 hrs by MTT assay relative to control; assay type: functional, cell-based; conditions: HCT-116, 48 h
A549 = experiment: Antiproliferative activity against human A549 cells after 48 hrs by MTT assay relative to control; assay type: functional, cell-based; conditions: A549, 48 h
U2OS = experiment: Antiproliferative activity against human U2OS cells after 48 hrs by MTT assay relative to control; assay type: functional, cell-based
MCF-10A = experiment: Antiproliferative activity against human MCF10A cells after 48 hrs by MTT assay relative to control; assay type: cell-based
[3] = Selectivity ratio of IC50 for human MCF10A cells to IC50 for human MDA-MB-231 cells; assay type: toxicity; conditions: MCF10A cells versus MDA-MB-231 cells, read-out: Ratio IC50
[4] = Selectivity ratio of IC50 for human HCT116 cells to IC50 for human MDA-MB-231 cells; assay type: functional
[5] = Selectivity ratio of IC50 for human A549 cells to IC50 for human MDA-MB-231 cells; assay type: functional
[6] = Selectivity ratio of IC50 for human U2OS cells to IC50 for human MDA-MB-231 cells; assay type: functional
Homo sapiens = species on record: Homo sapiens; experiment: Inhibition of MDR in human MCF7/ADR cells assessed as potentiation of adriamycin-induced antiproliferative activity by measuring fold reduction in adriamycin IC50 at 10 uM after 48 hrs by MTT assay; assay type: cell-based
[7] = molecular target: T1, Glutathione S-transferase P (Homo sapiens, UniProt P09211); experiment: Prodrug activation in human HCT116 cells assessed as GST-Pi-mediated NO release at 5 uM after 24 hrs in presence of NO scavenger carboxy-PTIO by nitrate reductase assay; assay type: cell-based
[8] = molecular target: T1, Glutathione S-transferase P; experiment: Prodrug activation in human HCT116 cells assessed as GST-Pi-mediated NO release at 5 uM after 24 hrs in presence of GST-Pi inhibitor etacrynic acid by nitrate reductase assay; assay type: cell-based
[9] = Cytotoxicity against ADR-sensitive human MCF7 cells assessed as inhibition of cell viability at 10 uM after 48 hrs by MTT assay relative to control; assay type: cell-based; conditions: read-out: INH
MCF7 = experiment: Cytotoxicity against ADR-sensitive human MCF7 cells assessed as inhibition of cell viability after 48 hrs by MTT assay; assay type: cell-based; conditions: MCF7, 48 h
[10] = molecular target: T1, Glutathione S-transferase P; experiment: Prodrug activation in human HCT116 cells assessed as GST-Pi-mediated NO release at 5 uM after 24 hrs by nitrate reductase assay; assay type: cell-based

T1 sequence (P09211 whole entry): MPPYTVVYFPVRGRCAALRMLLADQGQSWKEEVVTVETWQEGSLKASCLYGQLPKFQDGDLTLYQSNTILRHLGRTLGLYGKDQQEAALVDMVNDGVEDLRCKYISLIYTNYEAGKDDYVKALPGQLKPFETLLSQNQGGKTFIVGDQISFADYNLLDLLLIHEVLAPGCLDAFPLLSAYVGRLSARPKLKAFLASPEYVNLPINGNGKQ

SMILES | inhibition at 10 µM (HCT-116 [1]) [%] | IC50 (MDA-MB-231) [µM] | IC50 (HCT-116 [2]) [µM] | IC50 (A549) [µM] | IC50 (U2OS) [µM] | IC50 (MCF-10A) [µM] | selectivity ratio [3] | Ratio IC50 [4] | Ratio IC50 [5] | Ratio IC50 [6] | fold change (FC) (Homo sapiens) | Drug metabolism [7] | Drug metabolism [8] | cytotoxicity at 48 h, 10 µM [9] [%] | IC50 (MCF7) [µM] | Drug metabolism [10]
Cc1ccc(/C=C/C(=O)c2cccc(Oc3cc(O/N=[N+](\[O-])N4CCOCC4)c([N+](=O)[O-])cc3[N+](=O)[O-])c2)cc1 | 61.2 | 2.03 | 4.08 | 3.15 | 5.26 | 44.7 | 22 | 2 | 1.5 | 2.6 | 46.9 | Metabolite_Notdetected | Metabolite_Notdetected | 21.3 | 18.8 | 
CCCCOc1ccc(/C=C/C(=O)c2cccc(Oc3cc(O/N=[N+](\[O-])N4CCCCC4)c([N+](=O)[O-])cc3[N+](=O)[O-])c2)cc1OC | 58.6 |  |  |  |  |  |  |  |  |  |  |  |  |  |  | 
CCCCCOc1ccc(C2CC(c3cccc(Oc4cc(O/N=[N+](\[O-])N5CCCCC5)c([N+](=O)[O-])cc4[N+](=O)[O-])c3)=NN2C(C)=O)cc1OC (stereo not given) | 63.7 |  |  |  |  |  |  |  |  |  |  |  |  |  |  | 
COc1cc(/C=C/C(=O)c2cccc(Oc3cc(O/N=[N+](\[O-])N4CCCCC4)c([N+](=O)[O-])cc3[N+](=O)[O-])c2)cc(OC)c1OC | 63.7 | 3.42 | 5.29 | 4.65 | 4.65 | 80.8 | 23.6 | 1.5 | 1.4 | 1.4 | 42.5 |  |  | 19.2 | 30.4 | 
COc1ccc(/C=C/C(=O)c2cccc(Oc3cc(O/N=[N+](\[O-])N4CCCCC4)c([N+](=O)[O-])cc3[N+](=O)[O-])c2)cc1 | 69.5 | 6.15 | 5.37 | 8.58 | 9.78 | 113 | 18.3 | 0.9 | 1.4 | 1.6 | 1.53 |  |  | 11.2 | 71 | 
CN(C)c1ccc(/C=C/C(=O)c2cccc(Oc3cc(O/N=[N+](\[O-])N4CCOCC4)c([N+](=O)[O-])cc3[N+](=O)[O-])c2)cc1 | 57.1 |  |  |  |  |  |  |  |  |  |  |  |  |  |  | 
CCCCOc1ccc(C2CC(c3cccc(Oc4cc(O/N=[N+](\[O-])N5CCCCC5)c([N+](=O)[O-])cc4[N+](=O)[O-])c3)=NN2C(C)=O)cc1OC (stereo not given) | 72.9 | 3.27 | 7.78 | 6.94 | 3.55 | 79.7 | 24.4 | 2.4 | 2.1 | 1.1 |  |  |  |  |  | 
CCCCCCOc1ccc(/C=C/C(=O)c2cccc(Oc3cc(O/N=[N+](\[O-])N4CCOCC4)c([N+](=O)[O-])cc3[N+](=O)[O-])c2)cc1OC | 52.4 |  |  |  |  |  |  |  |  |  |  |  |  |  |  | 
CCCCCOc1ccc(/C=C/C(=O)c2cccc(Oc3cc(O/N=[N+](\[O-])N4CCOCC4)c([N+](=O)[O-])cc3[N+](=O)[O-])c2)cc1OC | 66.6 |  |  |  |  |  |  |  |  |  |  |  |  |  |  | 
CCCCCCOc1ccc(C2CC(c3cccc(Oc4cc(O/N=[N+](\[O-])N5CCOCC5)c([N+](=O)[O-])cc4[N+](=O)[O-])c3)=NN2C(C)=O)cc1OC (stereo not given) | 66.7 |  |  |  |  |  |  |  |  |  |  |  |  |  |  | 
COc1cc(/C=C/C(=O)c2cccc(Oc3cc(O/N=[N+](\[O-])N4CCOCC4)c([N+](=O)[O-])cc3[N+](=O)[O-])c2)cc(OC)c1OC | 77.6 | 1.18 | 2.92 | 1.96 | 5.17 | 13.8 | 11.7 | 2.4 | 1.7 | 4.4 | 72.3 | Metabolite_Notdetected | Metabolite_Notdetected | 21.5 | 20.9 | 
COc1ccc(CCN(C)CCCC(C#N)(c2ccc(OC)c(OC)c2)C(C)C)cc1OC (stereo not given) |  |  |  |  |  |  |  |  |  |  | 29.8 |  |  |  |  | 
CCCCCOc1ccc(C2CC(c3cccc(Oc4cc(O/N=[N+](\[O-])N5CCOCC5)c([N+](=O)[O-])cc4[N+](=O)[O-])c3)=NN2C(C)=O)cc1OC (stereo not given) | 68.3 |  |  |  |  |  |  |  |  |  | 16.8 |  |  | 21.7 | 35.8 | 
CCOC(=O)N1CCN(/[N+]([O-])=N/Oc2ccc([N+](=O)[O-])cc2[N+](=O)[O-])CC1 | 78 | 5.75 | 4.86 | 6.53 | 6.27 | 4.91 |  |  |  |  |  | Metabolite_Notdetected | Metabolite_Notdetected |  |  | Metabolite_Detected
CCCCCCOc1ccc(/C=C/C(=O)c2cccc(Oc3cc(O/N=[N+](\[O-])N4CCCCC4)c([N+](=O)[O-])cc3[N+](=O)[O-])c2)cc1OC | 16.1 |  |  |  |  |  |  |  |  |  |  |  |  |  |  | 
COc1ccc(/C=C/C(=O)c2cccc(Oc3cc(O/N=[N+](\[O-])N4CCOCC4)c([N+](=O)[O-])cc3[N+](=O)[O-])c2)cc1 | 68.7 | 5.34 | 4.91 | 5.9 | 5.19 | 16.6 | 3.1 | 0.9 | 1.1 | 1 | 64.2 |  |  | 5.4 | 29.9 | 
Cc1ccc(/C=C/C(=O)c2cccc(Oc3cc(O/N=[N+](\[O-])N4CCCCC4)c([N+](=O)[O-])cc3[N+](=O)[O-])c2)cc1 | 62.2 | 3.74 | 6.31 | 5.66 | 5.22 | 128 | 34.2 | 1.7 | 1.5 | 1.4 | 51.2 |  |  | 14.2 | 59.1 | 
CN(C)c1ccc(/C=C/C(=O)c2cccc(Oc3cc(O/N=[N+](\[O-])N4CCCCC4)c([N+](=O)[O-])cc3[N+](=O)[O-])c2)cc1 | 65.9 |  |  |  |  |  |  |  |  |  |  |  |  |  |  | 
CCCCCCOc1ccc(C2CC(c3cccc(Oc4cc(O/N=[N+](\[O-])N5CCCCC5)c([N+](=O)[O-])cc4[N+](=O)[O-])c3)=NN2C(C)=O)cc1OC (stereo not given) | 48 |  |  |  |  |  |  |  |  |  |  |  |  |  |  | 
CCCCCOc1ccc(/C=C/C(=O)c2cccc(Oc3cc(O/N=[N+](\[O-])N4CCCCC4)c([N+](=O)[O-])cc3[N+](=O)[O-])c2)cc1OC | 33 |  |  |  |  |  |  |  |  |  |  |  |  |  |  | 
CCCCOc1ccc(/C=C/C(=O)c2cccc(Oc3cc(O/N=[N+](\[O-])N4CCOCC4)c([N+](=O)[O-])cc3[N+](=O)[O-])c2)cc1OC | 70.2 |  |  |  |  |  |  |  |  |  |  |  |  |  |  | 
COc1ccc(/C=C/C(=O)c2cccc(Oc3cc(O/N=[N+](\[O-])N4CCCCC4)c([N+](=O)[O-])cc3[N+](=O)[O-])c2)cc1OC | 66.1 | 11.1 | 8.88 | 9.63 | 11.4 | 95.9 | 8.6 | 0.8 | 0.9 | 1 | 10.2 |  |  | 8.24 | 32.7 | 
